For 15 molecules, CC50 and EC50 results are on record in PMC10572855, “Phenotypic Test of Benzo[4,5]imidazo[1,2-c]pyrimidinone-Based Nucleoside and Non-Nucleoside Derivatives against DNA and RNA Viruses, Including Coronaviruses” (International Journal of Molecular Sciences, 2023).

Where two headings read alike, the source gives them in different places.

By CC50 is commonly meant the concentration giving 50% cytotoxicity. By EC50 is commonly meant the concentration giving half of the maximal effect.

A short description of data set [1]: Cytotoxicity in HEL299 cells, MTS assay. Particulars: human, HEL299 cells, cell growth reduced by 50%. The data set is classed as cell-based, Human. For orientation: Tetrazolium assays rely on reduction of a dye to a coloured formazan, in cell work by metabolically active cells.
Description: (§1) Cells were seeded at a rate of 5 × 10^3 cells/well into 96-well plates and allowed to proliferate for 24 h. Then, a medium containing different concentrations of the test compounds, starting at 100 mM, was added. After 3 days of incubation at 37 °C, the cell count was determined with a Beckman Coulter counter or, alternatively, cell viability was determined with the colorimetric formazan-based MTS assay. […] The cytotoxic effects of the compounds were also assessed by evaluating the MCC (minimum cytotoxic concentration that causes a microscopically detectable alteration of cell morphology).
The test system of data set [2] is RSV (Long). In words: Cytopathic effect reduction, RSV (Long). In kind it is cell-based, Respiratory syncytial virus. Particulars: reduction of virus-induced cytopathic effect by 50%, virus input 100 TCID50, read-out: Antiviral Activity (EC50) RSV Long. For orientation: Cytopathic effects are the visible damage that an infection or toxin causes in cultured cells.
Data set [3] can be described thus: Cytotoxicity in Huh7 cells, MTS assay. The data set is classed as cell-based, Human. Particulars: human, Huh7 cells, cell growth reduced by 50%.
Description: as §1
Data set [4] has as its system HCoV 229E. In words: Cytopathic effect reduction, HCoV 229E. The data set is classed as cell-based, Human coronavirus 229E. Particulars: reduction of virus-induced cytopathic effect by 50%, virus input 100 TCID50, read-out: Antiviral Activity (EC50) HCoV 229E.
The subject of data set [5] is HCoV NL63. In words: Cytopathic effect reduction, HCoV NL63. In kind it is cell-based, Human coronavirus NL63. Particulars: reduction of virus-induced cytopathic effect by 50%, virus input 100 TCID50, read-out: Antiviral Activity (EC50) HCoV NL63.
The subject of data set [6] is HCoV OC43. Put plainly: Cytopathic effect reduction, HCoV OC43. In kind it is cell-based, Human coronavirus OC43. To be noted: reduction of virus-induced cytopathic effect by 50%, virus input 100 TCID50, read-out: Antiviral Activity (EC50) HCoV OC43.
Data set [7] deals with HEL299 cells. Put plainly: Cytotoxicity in HEL299 cells, MTS assay. To be noted: cell growth reduced by 50%. In kind it is cell-based, Human.
Description: as §1
The test system of data set [8] is Huh7 cells. In words: Cytotoxicity in Huh7 cells, MTS assay. The data set is classed as cell-based, Human. To be noted: cell growth reduced by 50%.
Description: as §1
The mark [9] stands for this setting: human respiratory syncytial virus.

On to `O=c1n([C@H]2C[C@H](O)[C@@H](CO)O2)ccc2nc3cc(O)ccc3n12` [Compound 2a, 7-hydroxy-2-((2R,4S,5R)-4-hydroxy-5-(hydroxymethyl)tetrahydrofuran-2-yl)benzo[4,5]imidazo[1,2-c]pyrimidin-1(2H)-one], for which the CC50 at 3 days in data set [1] and in data set [3] was greater than 100 µM each time. Moreover, the EC50 in data set [2] (setting [9]) was greater than 100 µM; in data set [4] (Human coronavirus 229E), greater than 100 µM; in data set [5] (Human coronavirus NL63), greater than 100 µM; in data set [6] (Betacoronavirus 1, OC43) it was greater than 100 µM.
As for `CCCCCCOc1ccc2c(c1)nc1ccn([C@@H]3O[C@H](COC(c4ccccc4)(c4ccc(OC)cc4)c4ccc(OC)cc4)[C@@H](O)[C@H]3O)c(=O)n12` [Compound 5b, 2-((2R,3R,4S,5R)-5-((bis(4-methoxyphenyl)(phenyl)methoxy)methyl)-3,4-dihydroxytetrahydrofuran-2-yl)-7-(hexyloxy)benzo[4,5]imidazo[1,2-c]pyrimidin-1(2H)-one], the CC50 was greater than 100 µM in data set [7] and greater than 10 µM in data set [8]. The EC50 in data set [2] is greater than 100 µM; in data set [4], greater than 100 µM; in data set [5], greater than 100 µM; in data set [6], greater than 50 µM.
Take `CCCCCCCCOc1ccc2c(c1)nc1cc[nH]c(=O)n12` [Compound 6c, 7-(octyloxy)benzo[4,5]imidazo[1,2-c]pyrimidin-1(2H)-one]: the CC50 at 3 days in data set [1] and in data set [3] was greater than 100 µM throughout. In addition, the EC50 in data set [2] (setting [9]) is greater than 100 µM; in data set [4] (Human coronavirus 229E), greater than 100 µM; in data set [5] (Human coronavirus NL63), greater than 100 µM; in data set [6] (Betacoronavirus 1, OC43), greater than 100 µM.
`CCCCCCCCCCOc1ccc2c(c1)nc1cc[nH]c(=O)n12` [Compound 6d, 7-(decyloxy)benzo[4,5]imidazo[1,2-c]pyrimidin-1(2H)-one]: the CC50 at 3 days in data set [1] and in data set [3] was greater than 100 µM in each case. Further, the EC50 is greater than 100 µM in data set [2] (setting [9]); greater than 100 µM in data set [4] (Human coronavirus 229E); greater than 100 µM in data set [5] (Human coronavirus NL63); greater than 100 µM in data set [6] (Betacoronavirus 1, OC43).
`CCCCCCCCOc1ccc2c(c1)nc1ccn([C@H]3C[C@H](O)[C@@H](COC(c4ccccc4)(c4ccc(OC)cc4)c4ccc(OC)cc4)O3)c(=O)n12` [Compound 4c, 2-((2R,4S,5R)-5-((bis(4-methoxyphenyl)(phenyl)methoxy)methyl)-4-hydroxytetrahydrofuran-2-yl)-7-(octyloxy)benzo[4,5]imidazo[1,2-c]pyrimidin-1(2H)-one]: the results for the CC50 in data set [7] and in data set [8] were greater than 40 µM and greater than 100 µM, respectively. For the same molecule, the concentration for a half-maximal effect (EC50) in data set [2], in data set [4], in data set [5] and in data set [6] was greater than 100 µM throughout.
Regarding `CCCCCCCCCCCCOc1ccc2c(c1)nc1ccn([C@H]3C[C@H](O)[C@@H](COC(c4ccccc4)(c4ccc(OC)cc4)c4ccc(OC)cc4)O3)c(=O)n12` [Compound 4e, 2-((2R,4S,5R)-5-((bis(4-methoxyphenyl)(phenyl)methoxy)methyl)-4-hydroxytetrahydrofuran-2-yl)-7-(dodecyloxy)benzo[4,5]imidazo[1,2-c]pyrimidin-1(2H)-one], the half-maximal cytotoxic concentration (CC50) in data set [7] and in data set [8] was greater than 100 µM in each case. The EC50 in data set [2], in data set [4], in data set [5] and in data set [6] was greater than 100 µM each time.
In the case of `CCCCOc1ccc2c(c1)nc1cc[nH]c(=O)n12` [Compound 6a, 7-butoxybenzo[4,5]imidazo[1,2-c]pyrimidin-1(2H)-one], the CC50 at 3 days in data set [1] and in data set [3] was greater than 100 µM in each case. The half-maximal effective concentration (EC50) in data set [2] (setting [9]) was greater than 100 µM; in data set [4] (Human coronavirus 229E), greater than 100 µM; in data set [5] (Human coronavirus NL63), greater than 100 µM; in data set [6] (Betacoronavirus 1, OC43), greater than 100 µM.
Take `CCCCCCCCOc1ccc2c(c1)nc1ccn([C@@H]3O[C@H](COC(c4ccccc4)(c4ccc(OC)cc4)c4ccc(OC)cc4)[C@@H](O)[C@H]3O)c(=O)n12` [Compound 5c, 2-((2R,3R,4S,5R)-5-((bis(4-methoxyphenyl)(phenyl)methoxy)methyl)-3,4-dihydroxytetrahydrofuran-2-yl)-7-(octyloxy)benzo[4,5]imidazo[1,2-c]pyrimidin-1(2H)-one]: the CC50 in data set [7] is greater than 100 µM; in data set [8], greater than 10 µM. Also, the 50% effective concentration (EC50) in data set [2], in data set [4], in data set [5] and in data set [6] was greater than 100 µM each time.
For the molecule `CCCCOc1ccc2c(c1)nc1ccn([C@H]3C[C@H](O)[C@@H](COC(c4ccccc4)(c4ccc(OC)cc4)c4ccc(OC)cc4)O3)c(=O)n12` [Compound 4a, 2-((2R,4S,5R)-5-((bis(4-methoxyphenyl)(phenyl)methoxy)methyl)-4-hydroxytetrahydrofuran-2-yl)-7-butoxybenzo[4,5]imidazo[1,2-c]pyrimidin-1(2H)-one], the CC50 in data set [7] and in data set [8] was greater than 40 µM each time. Besides, the EC50 in data set [2], in data set [4], in data set [5] and in data set [6] was greater than 100 µM in each case.
In the case of `CCCCOc1ccc2c(c1)nc1ccn([C@@H]3O[C@H](COC(c4ccccc4)(c4ccc(OC)cc4)c4ccc(OC)cc4)[C@@H](O)[C@H]3O)c(=O)n12` [Compound 5a, 2-((2R,3R,4S,5R)-5-((bis(4-methoxyphenyl)(phenyl)methoxy)methyl)-3,4-dihydroxytetrahydrofuran-2-yl)-7-butoxybenzo[4,5]imidazo[1,2-c]pyrimidin-1(2H)-one], the CC50 in data set [7] and in data set [8] was greater than 100 µM throughout. Moreover, the EC50 in data set [2], in data set [4], in data set [5] and in data set [6] was greater than 100 µM in each case.
On to `CCCCCCCCCCOc1ccc2c(c1)nc1ccn([C@@H]3O[C@H](COC(c4ccccc4)(c4ccc(OC)cc4)c4ccc(OC)cc4)[C@@H](O)[C@H]3O)c(=O)n12` [Compound 5d, 2-((2R,3R,4S,5R)-5-((bis(4-methoxyphenyl)(phenyl)methoxy)methyl)-3,4-dihydroxytetrahydrofuran-2-yl)-7-(decyloxy)benzo[4,5]imidazo[1,2-c]pyrimidin-1(2H)-one], for which the CC50 in data set [7] and in data set [8] was greater than 100 µM throughout. The EC50 in data set [2], in data set [4], in data set [5] and in data set [6] was greater than 100 µM each time.
In the case of `CCCCCCCCCCCCOc1ccc2c(c1)nc1ccn([C@@H]3O[C@H](COC(c4ccccc4)(c4ccc(OC)cc4)c4ccc(OC)cc4)[C@@H](O)[C@H]3O)c(=O)n12` [Compound 5e, 2-((2R,3R,4S,5R)-5-((bis(4-methoxyphenyl)(phenyl)methoxy)methyl)-3,4-dihydroxytetrahydrofuran-2-yl)-7-(dodecyloxy)benzo[4,5]imidazo[1,2-c]pyrimidin-1(2H)-one], the CC50 is greater than 100 µM in data set [7] and greater than 40 µM in data set [8]. In addition, the EC50 in data set [2], in data set [4], in data set [5] and in data set [6] was greater than 100 µM each time.
For `O=c1n([C@@H]2O[C@H](CO)[C@@H](O)[C@H]2O)ccc2nc3cc(O)ccc3n12` [Compound 2b, 2-((2R,3R,4S,5R)-3,4-dihydroxy-5-(hydroxymethyl)tetrahydrofuran-2-yl)-7-hydroxybenzo[4,5]imidazo[1,2-c]pyrimidin-1(2H)-one], the CC50 at 3 days in data set [1] and in data set [3] was greater than 100 µM each time. Moreover, the EC50 in data set [2] (setting [9]) is greater than 100 µM; in data set [4] (Human coronavirus 229E) it was greater than 100 µM; in data set [5] (Human coronavirus NL63), greater than 100 µM; in data set [6] (Betacoronavirus 1, OC43), greater than 100 µM.
In the case of `CCCCCCCCCCOc1ccc2c(c1)nc1ccn([C@H]3C[C@H](O)[C@@H](COC(c4ccccc4)(c4ccc(OC)cc4)c4ccc(OC)cc4)O3)c(=O)n12` [Compound 4d, 2-((2R,4S,5R)-5-((bis(4-methoxyphenyl)(phenyl)methoxy)methyl)-4-hydroxytetrahydrofuran-2-yl)-7-(decyloxy)benzo[4,5]imidazo[1,2-c]pyrimidin-1(2H)-one], the CC50 in data set [7] and in data set [8] was greater than 40 µM throughout. The EC50 in data set [2], in data set [4], in data set [5] and in data set [6] was greater than 100 µM in each case.
`CCCCCCOc1ccc2c(c1)nc1ccn([C@H]3C[C@H](O)[C@@H](COC(c4ccccc4)(c4ccc(OC)cc4)c4ccc(OC)cc4)O3)c(=O)n12` [Compound 4b, 2-((2R,4S,5R)-5-((bis(4-methoxyphenyl)(phenyl)methoxy)methyl)-4-hydroxytetrahydrofuran-2-yl)-7-(hexyloxy)benzo[4,5]imidazo[1,2-c]pyrimidin-1(2H)-one]: the CC50 in data set [7] and in data set [8] was greater than 100 µM in each case. Moreover, the EC50 in data set [2], in data set [4], in data set [5] and in data set [6] was greater than 100 µM each time.
